Experimental data reported in ChEMBL document CHEMBL6127087 (Eur J Med Chem, 2024).
The source made the active and inactive calls. No cut-off for these calls is given here.

Experiments:
P2Y purinoceptor 6 = P2Y purinoceptor 6 (Homo sapiens, UniProt Q15077); experiment: Antagonist activity at human P2Y6R expressed in CHO cells assessed as inhibition of UDP sodium salt-induced Ca2+ level by FLIPR calcium 6 assay; format: functional, cell-based
Mus musculus [1] = experiment: (§1) Anti-inflammatory activity in LPS-induced male C57BL/6 mouse model of acute […] injury assessed as reduction in IL-1beta level in BALF at 2 mg/kg, IG preadministered with compound for 7 days followed by LPS administration and measured after 24 hrs by ELISA; format: functional, organism-based; details: time 8.0 day
Mus musculus [2] = experiment: Anti-inflammatory activity in LPS-induced male C57BL/6 mouse model of acute […] injury assessed as reduction in IL-6 level in BALF at 2 mg/kg, IG preadministered with compound for 7 days followed by LPS administration and measured after 24 hrs by ELISA; format: functional, organism-based; details: time 8.0 day
Mus musculus [3] = experiment: Anti-inflammatory activity in LPS-induced male C57BL/6 mouse model of acute […] injury assessed as reduction in infiltration of immune cells by measuring decrease in lymphocytes count at 2 mg/kg, IG preadministered with compound for 7 days followed by LPS administration and measured after 24 hrs; format: functional, organism-based; details: time 8.0 day
Mus musculus [4] = experiment: as §1, with “interstitial edema” for “IL-1beta level”, “lung” for “BALF”, “H and E staining based histopathological analysis” for “ELISA”; format: functional, organism-based; details: time 8.0 day
Mus musculus [5] = experiment: Anti-inflammatory activity in LPS-induced male C57BL/6 mouse model of acute […] injury assessed as reduction in infiltration of immune cells by measuring decrease in neutrophil count at 2 mg/kg, IG preadministered with compound for 7 days followed by LPS administration and measured after 24 hrs; format: functional, organism-based; details: time 8.0 day
Mus musculus [6] = experiment: as §1, with “tissue destruction” for “IL-1beta level”, “lung” for “BALF”, “H and E staining based histopathological analysis” for “ELISA”; format: functional, organism-based; details: time 8.0 day
Mus musculus [7] = experiment: as §1, with “absence of lesion” for “reduction”, “lung parenchyma” for “IL-1beta level in BALF”, “H and E staining based histopathological analysis” for “ELISA”; format: functional, organism-based; details: time 8.0 day
Mus musculus [8] = experiment: Anti-inflammatory activity in LPS-induced male C57BL/6 mouse model of acute […] injury assessed as reduction in infiltration of immune cells by measuring decrease in monocytes count at 2 mg/kg, IG preadministered with compound for 7 days followed by LPS administration and measured after 24 hrs; format: functional, organism-based; details: time 8.0 day
Mus musculus [9] = experiment: as §1, with “hyperemia of pulmonary alveolar septa” for “IL-1beta level”, “lung” for “BALF”, “H and E staining based histopathological analysis” for “ELISA”; format: functional, organism-based; details: time 8.0 day
Mus musculus [10] = experiment: as §1, with “intact appearance of alveolar structure” for “reduction”, “lung” for “IL-1beta level in BALF”, “H and E staining based histopathological analysis” for “ELISA”; format: functional, organism-based; details: time 8.0 day
Mus musculus [11] = experiment: Anti-inflammatory activity in LPS-induced male C57BL/6 mouse model of acute […] injury assessed as reduction in infiltration of immune cells by measuring decrease in WBC count at 2 mg/kg, IG preadministered with compound for 7 days followed by LPS administration and measured after 24 hrs; format: functional, organism-based; details: time 8.0 day
Mus musculus [12] = experiment: as §1, with “inflammatory infiltration” for “IL-1beta level”, “lung” for “BALF”, “H and E staining based histopathological analysis” for “ELISA”; format: functional, organism-based; details: time 8.0 day
Mus musculus [13] = experiment: Anti-inflammatory activity in LPS-induced male C57BL/6 mouse model of acute […] injury assessed as reduction in TNF-alpha level in BALF at 2 mg/kg, IG preadministered with compound for 7 days followed by LPS administration and measured after 24 hrs by ELISA; format: functional, organism-based; details: time 8.0 day
Mus musculus [14] = experiment: as §1, with “alveolar septa thickening” for “IL-1beta level”, “lung” for “BALF”, “H and E staining based histopathological analysis” for “ELISA”; format: functional, organism-based; details: time 8.0 day
[15] = Clearance in male Sprague-Dawley rat at 10 mg/kg, iv measured after 24 hrs by LC-MS/MS analysis; format: ADME, organism-based; details: in vivo
[16] = Half-life in male Sprague-Dawley rat at 20 mg/kg, po measured after 24 hrs by LC-MS/MS analysis; format: ADME, organism-based; details: in vivo, po, 20 mg/kg, 24 h
[17] = Cmax in male Sprague-Dawley rat at 10 mg/kg, iv measured after 24 hrs by LC-MS/MS analysis; format: ADME, organism-based; details: in vivo, iv, 10 mg/kg, 24 h
[18] = Tmax in male Sprague-Dawley rat at 10 mg/kg, iv measured after 24 hrs by LC-MS/MS analysis; format: ADME, organism-based; details: in vivo, iv, 10 mg/kg, 24 h
[19] = Tmax in male Sprague-Dawley rat at 20 mg/kg, po measured after 24 hrs by LC-MS/MS analysis; format: ADME, organism-based; details: in vivo, po, 20 mg/kg, 24 h
[20] = AUC (0 to 24 hrs) in male Sprague-Dawley rat at 10 mg/kg, iv measured after 24 hrs by LC-MS/MS analysis; format: ADME, organism-based; details: in vivo
[21] = Cmax in male Sprague-Dawley rat at 20 mg/kg, po measured after 24 hrs by LC-MS/MS analysis; format: ADME, organism-based; details: in vivo, po, 20 mg/kg, 24 h
[22] = Oral bioavailability in male Sprague-Dawley rat at 20 mg/kg measured after 24 hrs by LC-MS/MS analysis; format: ADME, organism-based; details: in vivo, po, 20 mg/kg, 24 h
[23] = Half-life in male Sprague-Dawley rat at 10 mg/kg, iv measured after 24 hrs by LC-MS/MS analysis; format: ADME, organism-based; details: in vivo, iv, 10 mg/kg, 24 h
[24] = AUC (0 to 24 hrs) in male Sprague-Dawley rat at 20 mg/kg, po measured after 24 hrs by LC-MS/MS analysis; format: ADME, organism-based; details: in vivo, po, 20 mg/kg, 24 h
[25] = Clearance in male Sprague-Dawley rat at 20 mg/kg, po measured after 24 hrs by LC-MS/MS analysis; format: ADME, organism-based; details: in vivo
P2Y purinoceptor 12 = P2Y purinoceptor 12 (Homo sapiens, UniProt Q9H244); experiment: Antagonist activity at human P2Y12R stably expressed in HEK293 cells assessed as inhibition of MeSADP-induced cAMP accumulation preincubated with compound for 30 mins followed by MeSADP addition by cAMP-GloTM assay; format: functional, cell-based
P2Y purinoceptor 4 = P2Y purinoceptor 4 (Homo sapiens, UniProt P51582); experiment: Antagonist activity at human P2Y4R stably expressed in HEK293 cells assessed as inhibition of UTP-induced IP3 accumulation preincubated with compound for 30 mins followed by UTP addition by ELISA
P2Y purinoceptor 4, sequence (P51582 whole entry): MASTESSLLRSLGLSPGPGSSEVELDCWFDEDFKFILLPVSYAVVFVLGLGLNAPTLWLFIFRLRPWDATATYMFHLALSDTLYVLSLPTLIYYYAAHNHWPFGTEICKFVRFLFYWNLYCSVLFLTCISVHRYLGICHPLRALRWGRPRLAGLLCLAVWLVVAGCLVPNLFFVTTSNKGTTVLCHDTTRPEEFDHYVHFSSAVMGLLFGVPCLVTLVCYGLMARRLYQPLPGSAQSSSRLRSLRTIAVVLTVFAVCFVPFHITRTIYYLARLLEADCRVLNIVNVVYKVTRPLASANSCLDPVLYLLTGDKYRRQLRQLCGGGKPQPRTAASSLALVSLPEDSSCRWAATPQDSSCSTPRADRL

P2Y purinoceptor 6, sequence (Q15077 whole entry): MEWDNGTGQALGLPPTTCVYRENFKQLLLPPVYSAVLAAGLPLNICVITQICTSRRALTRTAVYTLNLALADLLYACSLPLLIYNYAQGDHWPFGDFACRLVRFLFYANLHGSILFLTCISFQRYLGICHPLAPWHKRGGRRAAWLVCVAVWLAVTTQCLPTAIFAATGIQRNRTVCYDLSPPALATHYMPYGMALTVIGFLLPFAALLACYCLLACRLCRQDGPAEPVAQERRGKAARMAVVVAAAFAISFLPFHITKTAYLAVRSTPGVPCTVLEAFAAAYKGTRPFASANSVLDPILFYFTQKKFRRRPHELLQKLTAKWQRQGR
P2Y purinoceptor 12, sequence (Q9H244 whole entry): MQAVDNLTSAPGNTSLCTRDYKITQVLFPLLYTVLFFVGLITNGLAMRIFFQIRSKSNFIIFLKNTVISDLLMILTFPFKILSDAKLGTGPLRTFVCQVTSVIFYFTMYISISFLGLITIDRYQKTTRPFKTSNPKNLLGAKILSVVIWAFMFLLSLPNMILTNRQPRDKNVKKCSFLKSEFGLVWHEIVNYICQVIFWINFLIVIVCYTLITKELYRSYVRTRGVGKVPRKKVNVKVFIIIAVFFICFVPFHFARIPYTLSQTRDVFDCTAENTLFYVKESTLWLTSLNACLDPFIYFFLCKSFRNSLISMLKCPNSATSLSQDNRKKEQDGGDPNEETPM

Structure (SMILES)	IC50 (P2Y purinoceptor 6)	other results
O=C(O)CCC(=O)N1N=C(c2ccccc2)CC1c1cnc2ccccc2c1 (stereo unspecified)	39.8 nM	
Cc1ccc2cc(C3CC(c4cccnc4)=NN3C(=O)CCC(=O)O)c(Cl)nc2c1 (stereo unspecified)	279 nM	
O=C(O)CCC(=O)N1N=C(c2ccc[nH]2)CC1c1cc2ccc(F)cc2nc1Cl (stereo unspecified)	421 nM	
O=C(O)/C=C\C(=O)N1N=C(c2ccc[nH]2)CC1c1cnc2ccccc2c1 (stereo unspecified)	386 nM	
Cc1ccc2cc(C3CC(c4ccco4)=NN3C(=O)CCCC(=O)O)c(Cl)nc2c1 (stereo unspecified)	> 500 nM	
Cc1ccc2cc(C3CC(c4ccccc4)=NN3C(=O)CCC(=O)O)c(Cl)nc2c1 (stereo unspecified)	54.6 nM	
C[C@@H]1C[C@H]2[C@@H]3CCC4=CC(=O)C=C[C@]4(C)[C@@]3(F)[C@@H](O)C[C@]2(C)[C@@]1(O)C(=O)CO		Activity (Mus musculus [1]): Active; Activity (Mus musculus [2]): Active; Activity (Mus musculus [3]): Active; Activity (Mus musculus [4]): Active; Activity (Mus musculus [5]): Active; Activity (Mus musculus [6]): Active; Activity (Mus musculus [7]): Active; Activity (Mus musculus [8]): Active; Activity (Mus musculus [9]): Active; Activity (Mus musculus [10]): Active; Activity (Mus musculus [11]): Active; Activity (Mus musculus [12]): Active; Activity (Mus musculus [13]): Active; Activity (Mus musculus [14]): Active
Cc1ccc2cc(C3CC(c4ccco4)=NN3C(=O)CCC(=O)O)c(Cl)nc2c1 (stereo unspecified)	26.5 nM	
COc1ccc(C2=NN(C(=O)CCC(=O)O)C(c3cc4ccc(C)cc4nc3Cl)C2)cc1 (stereo unspecified)	106 nM	
Cc1ccc2cc(C3CC(c4ccc5ccccc5c4)=NN3C(=O)CCC(=O)O)c(Cl)nc2c1 (stereo unspecified)	> 500 nM	
Cc1ccc2cc(C3CC(c4ccccc4F)=NN3C(=O)CCC(=O)O)c(Cl)nc2c1 (stereo unspecified)	> 500 nM	
Cc1ccc2nc(Cl)c(C3CC(c4ccc[nH]4)=NN3C(=O)CCC(=O)O)cc2c1 (stereo unspecified)	66.8 nM	
Cc1cccc2cc(C3CC(c4ccccc4)=NN3C(=O)CCC(=O)O)c(Cl)nc12 (stereo unspecified)	41.5 nM	
O=C(O)CCC(=O)N1N=C(c2ccco2)CC1c1cc2ccccc2nc1Cl (stereo unspecified)	186 nM	
Cc1ccc2cc(C3CC(c4ccc(C(C)(C)C)cc4)=NN3C(=O)CCC(=O)O)c(Cl)nc2c1 (stereo unspecified)	69.4 nM	
Cc1ccc2nc(Cl)c(C3CC(c4ccco4)=NN3C(=O)CCC(=O)O)cc2c1 (stereo unspecified)	52.8 nM	
Cc1ccc2cc(C3CC(c4ccc(-c5ccccc5)cc4)=NN3C(=O)CCC(=O)O)c(Cl)nc2c1 (stereo unspecified)	168 nM	clearance [15]: 13.5 mL/min/kg; t1/2 [16]: 12 min; Cmax [17]: 864 ng/mL; Tmax [18]: 9 min; Tmax [19]: 14 min; AUC [20]: 1854 µg·h/L; Cmax [21]: 1211 ng/mL; F [22]: 16%; t1/2 [23]: 6 min; AUC [24]: 2356 µg·h/L; CL/F [25]: 20.1 mL/min/kg
Cc1ccc2nc(Cl)c(C3CC(c4ccccc4)=NN3C(=O)CCC(=O)O)cc2c1 (stereo unspecified)	106 nM	
Cc1ccc2cc(C3CC(c4cccs4)=NN3C(=O)CCC(=O)O)c(Cl)nc2c1 (stereo unspecified)	324 nM	

Structure (SMILES)	IC50 (P2Y purinoceptor 6)	other results
O=C(O)CCC(=O)N1N=C(c2ccc[nH]2)CC1c1cc2ccccc2nc1Cl (stereo unspecified)	249 nM	
Cc1cccc(C2=NN(C(=O)CCC(=O)O)C(c3cc4ccc(C)cc4nc3Cl)C2)c1 (stereo unspecified)	125 nM	
O=C(O)CCC(=O)N1N=C(c2ccccc2)CC1c1cc2ccc(F)cc2nc1Cl (stereo unspecified)	187 nM	
Cc1ccc2cc(C3CC(c4ccc[nH]4)=NN3C(=O)CCC(=O)O)c(Cl)nc2c1 (stereo unspecified)	29.6 nM	
O=C(O)CCC(=O)N1N=C(c2ccco2)CC1c1cc2ccc(F)cc2nc1Cl (stereo unspecified)	210 nM	
Cc1cccc2cc(C3CC(c4ccc[nH]4)=NN3C(=O)CCC(=O)O)c(Cl)nc12 (stereo unspecified)	53.7 nM	
Cc1ccc2cc(C3CC(c4c[nH]c5ccccc45)=NN3C(=O)CCC(=O)O)c(Cl)nc2c1 (stereo unspecified)	148 nM	
CCCSc1nc(N[C@@H]2C[C@H]2c2ccc(F)c(F)c2)c2nnn([C@@H]3C[C@H](OCCO)[C@@H](O)[C@H]3O)c2n1 [TICAGRELOR]		IC50 (P2Y purinoceptor 12): 1220 nM
COc1cccc(C2=NN(C(=O)CCC(=O)O)C(c3cc4ccc(C)cc4nc3Cl)C2)c1 (stereo unspecified)	77.5 nM	
Cc1ccc2cc(C3CC(c4ccco4)=NN3C(=O)C=CC(=O)O)c(Cl)nc2c1 (stereo unspecified)	291 nM	
Cc1cccc2cc(C3CC(c4ccco4)=NN3C(=O)CCC(=O)O)c(Cl)nc12 (stereo unspecified)	34.6 nM	
O=C(O)CCCC(=O)N1N=C(c2ccc[nH]2)CC1c1cnc2ccccc2c1 (stereo unspecified)	200 nM	
Cc1ccc2cc(C3CC(c4ccc(O)cc4)=NN3C(=O)CCC(=O)O)c(Cl)nc2c1 (stereo unspecified)	> 500 nM	
Cc1ccc(C2=NN(C(=O)CCC(=O)O)C(c3cc4ccc(C)cc4nc3Cl)C2)cc1 (stereo unspecified)	84.6 nM	
O=C(C1CC1)N1CCc2cc(Br)c(S(=O)(=O)Nc3ccc(Cl)c(C(F)(F)F)c3)cc21		IC50 (P2Y purinoceptor 4): 12.5 µM
O=C(O)CCC(=O)N1N=C(c2ccccc2)CC1c1cc2ccccc2nc1Cl (stereo unspecified)	274 nM	
O=C(O)CCC(=O)N1N=C(c2ccco2)CC1c1cnc2ccccc2c1 (stereo unspecified)	26.7 nM	
Cc1ccc2cc(C3CC(c4cccc(C(F)(F)F)c4)=NN3C(=O)CCC(=O)O)c(Cl)nc2c1 (stereo unspecified)	> 500 nM	
